This note sets out measurements from PMC10149936, “Cofilin activation in pancreatic acinar cells plays a pivotal convergent role for mediating CCK-stimulated enzyme secretion and growth” (Frontiers in Physiology, 2023).

The test system of one assay is AR42J cells. Briefly: amylase release from AR42J cells (Phadebas). It is filed as cell-based. The settings on record: Cytochalasin D 10 µM or Paclitaxel 5 µM; for inhibition of CCK-8/A71378-induced amylase secretion: 4 h, CCK-8 and A71378 (0.03 and 1 nM), 30 min; for effect on basal amylase release: AR42J (Figure 13B). The method, then:
(§1) CCK1 receptor transfected Panc-1 (CCK1-R/Panc-1) cells ([Berna et al., 2009]) and AR42J cells, were cultured in DMEM supplemented with 10% FBS and 1% penicillin/streptomycin and in RPMI supplemented with 10% FBS and 1% penicillin/streptomycin, respectively; and split 1:10 weekly with trypsin/EDTA, after washing in PBS. Finally, cells were seeded in 6-well plate and serum starved overnight, until they were 80% confluent. Cells were incubated at 37°C in 5% CO2/95% air. AR42J cells were treated with 100 nM dexamethasone for 72°h, which stimulates their differentiation into exocrine cells ([Logsdon, 1986]).
For siRNA-mediated knockdown, 5 × 10^5 CCK1-R/Panc-1 or AR42J cells were seeded into 6-well plates and incubated for 24 h. Cells were then transfected with 10 nM of siRNA against human SSH1 siRNA against human cofilin (Dharmacon. Lafayette, CO) in Opti-MEM medium for 48 h using Lipofectamine according to the manufacture’s instruction.
Amylase release was performed as described previously ([Sato et al., 1989]; [Ramos-Alvarez and Jensen, 2018]). Amylase activity was determined after 30 min incubation using the Phadebas reagent and was expressed as percentage of the total cellular amylase released into the extracellular medium during the incubation ([Ramos-Alvarez and Jensen, 2018]).
FIGURE 13 Effect of two cofilin inhibitors, Cytochalasin D or Paclitaxel, (A, B), or Cofilin siRNA (C), on the ability of CCK/TPA/A71378-stimulated amylase release form pancreatic acini (A) or AR42J cells (B, C). In (A, B) pancreatic acini and AR42J cells were incubated in the absence or presence of Cytochalasin D (10 µM) or Paclitaxel (5 µM) for 4 h and then incubated with no additions (control) or CCK-8 (0.03, 0.3, 1 and 100 nM), TPA (1 µM) or A71378 (0.03 and 1 nM) for 30 min and then lysed. In (B, C) AR42J cells were treated with Dexamethasone (100 nM) for 72 h, and in (C) AR42J cells were transfected with siRNA Non-targeting Control and siRNA against cofilin for 48 h, and then incubated with no addition (control) or CCK-8 (0.03 and 1 nM) and A71378 (0.03 and 1 nM) for 30 min. Amylase release, expressed as percent of cellular total amylase secreted, was determined after 30 min incubation. Means ± S.E. of at least 3 independent experiments. N.S., No significant.

In assay [1] the test system is cofilin (pS3) in AR42J cells. Briefly: cofilin activation (pS3 cofilin Western blot) in AR42J cells. Format: cell-based. To be noted: Cytochalasin D 10 µM or Paclitaxel 5 µM, 4 h; A71378 30 nM 10 min. The procedure: as §1
Western blotting and immunoprecipitation were performed as described previously ([Ramos-Alvarez and Jensen, 2018]). Whole cell lysates were subjected to SDS-PAGE using 4%–20% Tris–Glycine gels. […] The intensity of the protein bands was measured using GeneTools software from Syngene, which were assessed in the linear detection range.
FIGURE 12 Effect of two cofilin inhibitors, Cytochalasin D or Paclitaxel (A, B), or cofilin siRNA (C), on the ability of A71378 (30 and 10 nM) to alter activation of cofilin (A) and p44/42 (B, C). […] Western blots were analyzed using anti-pS3 cofilin, anti-pT202/Y204 p44/42 and Tubulin. Bands were visualized using chemiluminescence and quantified by densitometry. […] Results are expressed as % of basal stimulation of the control group. […]
A general note: In western blotting, separated proteins are transferred to a membrane and probed.

The test system of assay [2] is cofilin / total PP2A association. Briefly: co-immunoprecipitation of cofilin with total PP2A in pancreatic acini. It is filed as cell-based, rat. To be noted: for increase in total PP2A co-immunoprecipitation with cofilin: CCK-8 100 nM 3 min, TPA 1 µM 5 min, Figure 8B. The method, then:
For co-immunoprecipitation, 600 μg of protein was incubated with 15 μL of the anti-cofilin antibody (Santa Cruz Biotechnology, Inc. Dallas, TX) and 25 μL of protein A/G agarose beads (Thermo-Fisher Scientific. Waltham, MA) overnight at 4°C under agitation. Samples were washed three times with lysis buffer, re-suspended in 12.5 μL of Sample Buffer, Laemlii 2x concentrate and boiled for 5 min before western blotting.
FIGURE 6 Effect of CCK-8 (100 nM) to alter co-immunoprecipitation of cofilin with total PP2A (A) or PP1 (B). Isolated pancreatic acini were incubated in the absence or presence of CCK-8 (100 nM) for 3 min and then lysed. Equal amounts of protein were co-immunoprecipitated with an anti-cofilin (Santa Cruz, SC-376476) and then subjected to Western blots using anti-PP2A and anti-PP1. Bands were visualized using chemiluminescence and quantified by densitometry. Top: Results of a representative blot of four independent experiments are shown. Bottom: Means ± S.E. of at least 4 independent experiments. Results are expressed as % of basal stimulation of the control group. N.S., No significant. Effect of the lysate, lysis buffer, Protein A/G agarose beads (beads) or Anti-cofilin antibody (Anti-cofilin ab) individually on phospho and total cofilin (pS3), phospho and total PP2A, phospho and total PP1 and tubulin. Lysates were analyzed using cofilin (pS3), Total cofilin, PP2A (pY307), Total PP2A, PP1(pT320), Total PP1 and tubulin. Antibody detecting tubulin was used to verify loading of equal amounts of protein.
FIGURE 8 Effect of a PKD inhibitor, kbNB, or a Src inhibitor, PP2, on the ability of CCK-8 (100 nM) and TPA (1 µM) to stimulate the association of cofilin with either phospho-PP2A (A) or total PP2A (B). Isolated pancreatic acini were incubated in the absence or presence of kbNB (0.1 µM) or PP2 (10 µM) for 3 h and then incubated with no addition (control), CCK-8 (100 nM, 3 min) or TPA (1 μM, 5 min), and then lysed. […] Bands were visualized using chemiluminescence and quantified by densitometry. […] Results are expressed as % of basal stimulation of the control group. […]

Take `C=C1[C@@H](C)[C@H]2[C@H](Cc3ccccc3)NC(=O)[C@]23[C@H](OC(C)=O)/C=C/[C@@](C)(O)C(=O)[C@@H](C)C/C=C/[C@H]3[C@@H]1O` [Cytochalasin D]: in the assay with AR42J cells, the “inhibition of CCK-8/A71378-induced amylase secretion” value is listed as “completely inhibited” and the “effect on basal amylase release” value was “Neither of these two cofilin inhibitors influenced basal amylase release”. Besides, the “inhibition of CCK1-R-induced activation of cofilin in AR42J cells” value in assay [1] is “completely inhibited”.

As to `CC(=O)O[C@H]1C(=O)[C@@]2(C)[C@H]([C@H](OC(=O)c3ccccc3)[C@]3(O)C[C@H](OC(=O)[C@H](O)[C@@H](NC(=O)c4ccccc4)c4ccccc4)C(C)=C1C3(C)C)[C@]1(OC(C)=O)CO[C@@H]1C[C@@H]2O` [Paclitaxel], in the assay with AR42J cells, the “inhibition of CCK-8/A71378-induced amylase secretion” value is “completely inhibited” and the “effect on basal amylase release” value is listed as “Neither of these two cofilin inhibitors influenced basal amylase release”. The “inhibition of CCK1-R-induced activation of cofilin in AR42J cells” value in assay [1] is on record as “completely inhibited”.

As for `CCCCCCCCCCCCCC(=O)O[C@@H]1[C@@H](C)[C@@]2(O)[C@@H](C=C(CO)C[C@]3(O)C(=O)C(C)=C[C@@H]23)[C@H]2C(C)(C)[C@]12OC(C)=O` [TPA, 12-O-tetradecanoylphobol-13-acetate], the “increase in total PP2A co-immunoprecipitation with cofilin” value in assay [2] is 40%.

On to “COOH-terminal octapeptide of cholecystokinin [CCK-8]”, for which, in assay [2], the “increase in total PP2A co-immunoprecipitation with cofilin” value amounted to 40%. In addition, the “increase in PP2A immunoprecipitation with cofilin” value in assay [2] (CCK-8 100 nM, 3 min, Figure 6) amounted to 25%.
